What was measured:
[1] = Fluorescence spectral analysis of Compound 1 in urine derived from cervical cancer patients; set-up: species or system human; conditions: Compound 1 100 μM, urines N=100 versus normal N=308, 37° C. 40 minutes
Experimental: Specifically, fluorescence spectral analysis was performed immediately after treatment of the urines with Compound 1 (black line). After stirring at 37° C. for 40 minutes, fluorescence spectral analysis was performed (red line). […]

[2] = Fluorescence emission of Compound 1 with cysteine added to non-pretreated urine; set-up: species or system human
Experimental: In order to confirm the reaction of Compound 1 with cysteine in urine, non-pretreated urine (198 μL) was treated with varying concentrations (1 to 120 ng/μL) of cysteine, and then treated with Compound 1 (100 μM). The resulting urines were stirred in a stirrer at 37° C. for 40 minutes, and the fluorescence spectra were measured (excitation wavelength: 488 nm). In addition, Compound 1 was used after dissolution in a DMSO solution at 10 mM, and the amount of DMSO in the final solvent condition was controlled to be the same for each container (less than 1%).
Specifically, a spectro-fluorophotometer (SHIMADZU Corp. RF-6000, Japan) was used to analyze the emission spectrum, and the glass cuvette used for fluorescence measurement was a standard quartz cell (internal volume=[…], Hellma Analytics, Jena, Germany) having a thickness of 1 cm on all sides. In addition, a chamber (WUV-L10, DAIHAN Scientific) capable of excitation at a wavelength of 365 nm was used to visually observe the fluorescence change.
When the urine was treated with compound 1 (100 μM) and cysteine (60 ng/μL or higher), fluorescence changes were visible without a separate fluorescence measurement device. Although fluorescence changes were not visible when the urine was treated with Compound 1 (100 μM) and cysteine (concentration of 10 ng/μL or lower), examination was made as to whether fluorescence changes in this treatment could be confirmed using a fluorescence measurement device (FIG. 1(b)). Referring to FIG. 1(b), significant fluorescence changes could be obtained in the presence of 1 ng/μL of cysteine in urine, and statistical data thereon are shown below.

[3] = Binding selectivity of Compound 1 to cysteine in urine by fluorescence change; conditions: 37° C. 40 minutes, excitation 488 nm; for selectivity of fluorescence change among biomolecules detectable in urine: each biomolecule 100 μM (cysteine, glutathione, aspartic acid, glutamine, lysine, arginine, adenosine triphosphate, sucrose, ammonium), FIG. 2(b)
Experimental: Specifically, in order to determine whether Compound 1 selectively binds to cysteine in urine, cysteine and N-ethylmaleimide (NEM) (500 μM) capable of lowering cysteine concentration in urine were used. In addition, glutathione, aspartic acid, glutamine, lysine, arginine, adenosine triphosphate, sucrose, and ammonium used in the experiment were products obtained from TCI (Tokyo Chemical Industry Co., Ltd), Sigma Aldrich, and Alfa Company. The concentration of each biomolecule was equally measured at 100 μM. In addition, in order to obtain fluorescence spectra and values, Compound 1 and an unknown sample were stirred at 37° C. for 40 minutes and then excited at a wavelength of 488 nm.
The types of biomolecules indicated on the x-axis of FIG. 2(b) are as follows, and the following Probe 1 corresponds to Compound 1: • (A) Probe 1; • (B) Probe 1 with L-cysteine; • (C) Probe 1 with L-glutathione; • (D) Probe 1 with L-aspartic acid; • (E) Probe 1 with L-glutamine; • (F) Probe 1 with L-lysine; • (G) Probe 1 with L-arginine; • (H) Probe 1 with adenosine triphosphate; • (I) Probe 1 with sucrose; • (J) Probe 1 with ammonium.

[4] = Fluorescence spectral analysis of Compound 1 in urines from patients with other diseases including cancer; set-up: species or system human; conditions: Compound 1 100 μM, 37° C. 40 minutes
From the text: The urines used in the experiment were collected from urolithiasis patients (B, N=162), kidney cancer patients (C, N=162), prostate cancer patients (D, N=162), bladder cancer patients (E, N=162), cervical cancer patients (F, N=100), diabetic patients (G, N=100), pituitary cancer patients (H, N=100), adrenal cancer patients (I, N=100), lung cancer patients (J, N=100), ovarian cancer patients (K, N=100), pancreatic and biliary tract cancer patients (L, N=100), and pancreatic cancer patients (M, N=100). In the measurement method, each of the collected urine (198 μL) and Compound 1 (100 μM) were mixed together, the fluorescence spectra thereof were measured, and the highest fluorescence intensity value was taken. Then, each mixture was stirred at 37° C. for 40 minutes, and the highest fluorescence intensity value obtained from the fluorescence spectra was taken. The difference between the fluorescence intensity values before and after the reaction was shown as a bar graph.

Q: Which “fluorescence values after reaction in urines derived from cervical cancer patients” value [1] does the source give for `O=[N+]([O-])c1ccc(Oc2c(F)c(F)c(F)c(F)c2F)c2nonc12` [Compound 1, 4-nitro-7-(Perfluorophenoxy)benzo[c][1,2,5]oxadiazole] here?
A: Its value is “high fluorescence values”.

Q: And the “cysteine concentration at which fluorescence changes were visible without a separate fluorescence measurement device” value ([2]; normal urine, Compound 1 100 μM, 37° C. 40 minutes, excitation at 365 nm)?
A: The value was ≥ 60 ng/µL.

Q: And the “cysteine concentration at which fluorescence changes were not visible” value ([2]; normal urine, Compound 1 100 μM, 37° C. 40 minutes, excitation at 365 nm, by eye)?
A: Its value is ≤ 10 ng/µL.

Q: What about the “cysteine concentration in urine giving significant fluorescence changes using a fluorescence measurement device” value ([2]; urine, Compound 1 100 μM, 37° C. 40 minutes, excitation 488 nm) of the same compound?
A: The value was 1 ng/µL.

Q: What about the “wavelength of fluorescence turn-on upon binding to cysteine” value ([2]; when bound to cysteine) of the same compound?
A: The value was ~550 nm.

Q: What about the “fluorescence value in urine containing cysteine” value ([3]; FIG. 2(a)) of the same compound?
A: The value was “high fluorescence value”.

Q: And the “fluorescence value on co-treatment with N-ethylmaleimide which reduces cysteine” value ([3]; N-ethylmaleimide 500 μM, urine, FIG. 2(a))?
A: The value was “fluorescence value decreased”.

Q: What about the “selectivity of fluorescence change among biomolecules detectable in urine” value [3] of the same compound?
A: The value was “significant fluorescence change could be observed only for cysteine”.

Q: What about the “selectivity of fluorescence change among biomolecules detectable in urine” value ([3]; listed as 4-nitro-7-(perfluorophenoxy)benzo[c][1,2,5]oxadiazole) of the same compound?
A: The value was “selectively detect cysteine in urine without interference of other biomolecules”.

Q: What about the “patient group with the largest fluorescence emission effect” value ([4]; cervical cancer patients (F) compared with the other patient groups) of the same compound?
A: The value was “greatest in the case of cervical cancer patients”.

Q: What about the “fluorescence emission (difference of highest fluorescence intensity before and after reaction) in patient urines” value ([4]; urines of urolithiasis (B), cervical cancer (F), adrenal cancer (I), ovarian cancer (K), pancreatic and biliary tract cancer (L) patients) of the same compound?
A: Its value is “noticeable fluorescence emission was observed”.

Reference: patent US11884638B2, “Compound or salt thereof, composition for cysteine detection, fluorescent probe and composition for diagnosing cancer containing the same, method for detecting cysteine, method for providing information for diagnosing cancer, and method for producing compound” (Industry-Academic Cooperation Group of Kyung Hee University, priority 2021, dated 2024)
